According to PMC6865014, “Discovery of Novel µ-Opioid Receptor Inverse Agonist from a Combinatorial Library of Tetrapeptides through Structure-Based Virtual Screening” (Molecules, 2019):

Legend:
[1] = test system: MOR (µ-opioid receptor), rat brain membranes; experiment: Radioligand competition binding, [^3H]DAMGO; design: species or system rat (male Wistar); conditions: for activity against MOR (in words): stated when comparing binding modes, up to 10 µM
Protocol: (§1) Rats were decapitated and their brains were quickly removed. The brains were used for membrane preparation according to Benyhe et al. partly used for competition binding experiments and partly were further prepared for the [^35S]GTPγS binding experiments based on Zádor et al.. Briefly, the brains were homogenized, centrifuged in ice-cold 50 mM Tris-HCl (pH 7.4) buffer and incubated at 37 °C for 30 min in a shaking water-bath. After incubation, the centrifugation was repeated as described before and the final pellet was suspended in 50 mM Tris-HCl pH 7.4 buffer containing 0.32 M sucrose and stored at −80 °C. For the [^35S]GTPγS binding experiments the final pellet of rat brain membrane homogenate was suspended in ice-cold TEM (Tris-HCl, EGTA, MgCl2) and stored at −80 °C for further use.
Total and non-specific binding was determined in the absence of ligands and the presence of 10 µM unlabeled naloxone, respectively. Following incubation, the bound and unbound radioligands were separated by rapid vacuum filtration through Whatman GF/C glass fibers and washed three times with 5 mL ice-cold 50 mM Tris-HCl (pH: 7.4). The radioactivity of the filters was detected in UltimaGold^TM MV aqueous scintillation cocktail with Packard Tricarb 2300TR liquid scintillation counter. The competition binding assays were performed in duplicate and repeated at least three times.
(§2) The specific binding of all radiolabeled compounds was calculated by the subtraction of non-specific binding from total binding and was given in percentage. The data were normalized to total specific binding, which was settled 100%, which in the case of [^35S]GTPγS also represents the basal activity of the G-protein. Experimental data were presented as mean ± S.E.M. Statistical analyses were performed with GraphPad Prism 5.0 applying one-way ANOVA with Tukey’s multiple comparison test. Significance was accepted at the p < 0.05 level.

[2] = test system: Gαi/o protein, rat brain membrane homogenates; experiment: Functional [^35S]GTPγS binding (G-protein activity); type: biochemical, rat (male Wistar); conditions: 10 µM, basal activity = 100%, 30 °C, 60 min, triplicates, at least three times; for effect on G-protein basal activity / [^35S]GTPγS specific binding (in words): rat brain membranes, pH 7.4
Protocol: as §1
In [^35S]GTPγS binding experiments was measured the GDP→GTP exchange of the Gαi/o protein in the presence of a given ligand to measure ligand potency and the maximal efficacy of receptors G-protein. The nucleotide exchange is monitored by a radioactive, non-hydrolysable GTP analog, [^35S]GTPγS. The functional [^35S]GTPγS binding experiments were performed as previously described, with some modifications. The test compounds in 10 µM were incubated together with rat brain membrane homogenates containing ~10 μg/mL protein at 30 °C for 60 min in Tris-EGTA buffer (pH 7.4) composed of 50 mM Tris-HCl, 1 mM EGTA, 3 mM MgCl2, 100 mM NaCl, containing 20 MBq/0.05 cm^3 [^35S]GTPγS (0.05 nM). […] Total binding was measured in the absence of test compounds, while non-specific binding was determined in the presence of 10 μM unlabeled GTPγS. The bound and unbound [^35S]GTPγS were separated as described in the competition binding assays section through Whatmann GF/B glass fibers. The radioactivity of the filters was also detected as described above. [^35S]GTPγS binding experiments were performed in triplicates and repeated at least three times.
as §2

[3] = test system: DOR (δ-opioid receptor), rat brain membranes; experiment: Radioligand competition binding, [^3H]IleDelt II; design: species or system rat (male Wistar); conditions: 3 and 10 µM
Protocol: as §1
Total and non-specific binding was determined in the absence of ligands and the presence of 10 µM unlabeled naloxone, respectively. […] The radioactivity of the filters was detected in UltimaGold^TM MV aqueous scintillation cocktail with Packard Tricarb 2300TR liquid scintillation counter. […]
(§3) The specific binding of all radiolabeled compounds was calculated by the subtraction of non-specific binding from total binding and was given in percentage. […]

[4] = test system: MOR, rat brain membrane homogenates; experiment: MOR specificity of the peptide 1 effect: [^35S]GTPγS binding with co-incubated DAMGO or cyprodime; type: biochemical, rat (male Wistar); conditions: rat brain membranes
Protocol: as §1, with “For the [^35S]GTPγS binding experiments the final pellet of rat brain membrane homogenate was suspended in ice-cold TEM (Tris-HCl, EGTA, MgCl2) and stored at −80 °C for further use.” left out
In [^35S]GTPγS binding experiments was measured the GDP→GTP exchange of the Gαi/o protein in the presence of a given ligand to measure ligand potency and the maximal efficacy of receptors G-protein. The nucleotide exchange is monitored by a radioactive, non-hydrolysable GTP analog, [^35S]GTPγS. […] Total binding was measured in the absence of test compounds, while non-specific binding was determined in the presence of 10 μM unlabeled GTPγS. […] The radioactivity of the filters was also detected as described above. […]
as §3

δ-opioid receptors = conditions: ref [11]; cited from earlier work
From the text: These are potent μ-opioid agonists that exert addiction liability and numerous side effects, such as euphoria, addiction, respiratory depression, and gastrointestinal adverse reactions; therefore; circumventing these drawbacks is of extensive importance. A large amount of literature documented novel approaches to disconnecting the analgesic efficacy of μ-opioid agonists from morphine-like side effects, for example biasing the GPCRs over β-arrestin2 recruitment (TRV130, PZM21, HS665) or designing positive allosteric modulators of the MOR (BMS-986122), MOR inverse agonists/KOR antagonists, ...

[5] = molecular target: δ-opioid receptor (rat (endogenous in Wistar rat brain)) (UniProt P33533); experiment: radioligand binding; competition against ~1 nM [^3H]IleDelt II on rat brain membranes (0.3-0.5 mg/mL protein), test ligands at 3 and 10 µM, 35 °C, 45 min; non-specific binding with 10 µM naloxone; filtration, 50 mM Tris-HCl pH 7.4 wash
[6] = molecular target: µ-opioid receptor (rat (endogenous in Wistar rat brain)) (UniProt P33535)

**Q.** What does the source list for “H-Tyr-Trp-Tyr-Trp-OH [peptide 3, TFA.H-Tyr-Trp-Tyr-Trp-OH]”?
**A.** activity against MOR (in words) [1]: inactive against MOR; effect on G-protein basal activity / [^35S]GTPγS specific binding (in words) [2]: did not alter significantly the basal activity

**Q.** Which “specific binding of [^3H]DAMGO in presence of unlabeled homologue” value ([1]; control, unlabeled DAMGO 3 and 10 µM, rat brain membranes, 35 °C, 45 min, 0% = non-specific binding level) does the source give for “Tyr-D-Ala-Gly-(NMe)Phe-Gly-ol [DAMGO, reference compound]” here?
**A.** 0%

**Q.** What about the “effect on G-protein basal activity / [^35S]GTPγS specific binding (in words)” value [2] of the same molecule?
**A.** significantly increased the specific binding of the [^35S]GTPγS compared to the basal level

**Q.** Which results are given for “H-Tyr-Lys-Arg-Cys-OH [peptide 1, TFA.H-Tyr-Lys-Arg-Cys-OH]”?
**A.** inhibition of [^3H]DAMGO specific binding (in words) ([1]; 3 and 10 µM, rat brain membranes): displayed inhibition of [^3H]DAMGO specific binding; selectivity MOR over DOR (in words) ([1]; [^3H]DAMGO vs [^3H]IleDelt II binding, rat brain membranes): selectivity for MOR over DOR; inhibition of [^3H]IleDelt II specific binding (in words) [3]: not against [^3H]IleDelt II; reduction of G-protein basal activity ([^35S]GTPγS specific binding) ([2]; rat brain membranes ~10 μg/mL, pH 7.4, 0.05 nM [^35S]GTPγS): ~ 20%; effect on G-protein basal activity / [^35S]GTPγS specific binding (in words) [2]: appreciable inverse agonist effect; MOR functional activity (in words) ([4]; 10 µM): appreciable inverse agonist effect at MOR; inverse agonist effect in presence of DAMGO ([4]; peptide 1 10 µM + DAMGO 10 µM): the inverse agonist effect was reversed back to basal activity level

**Q.** Which results are given for rubiscolin-6?
**A.** G protein signaling at δ-opioid receptors (in words) (δ-opioid receptors): activate G protein signaling pathways at the δ-opioid receptors; β-arrestin recruitment (in words) (δ-opioid receptors): minimal β-arrestin recruitment

**Q.** With Ile^5,6-deltorphin II (peptide) as the molecule, how does the specific binding of the radiolabeled homolog left (percent of total) [5] read?
**A.** 0%

**Q.** What does the source list for “H-Tyr-Trp-Trp-Trp-OH [peptide 2, TFA.H-Tyr-Trp-Trp-Trp-OH]”?
**A.** activity against MOR (in words) [1]: inactive against MOR; effect on G-protein basal activity / [^35S]GTPγS specific binding (in words) [2]: did not alter significantly the basal activity

**Q.** For YKRC [peptide 1 (Tyr-Lys-Arg-Cys)], which [^35S]GTPγS specific binding (G-protein basal activity) in rat brain membranes, 10 µM peptide 1 [6] is on record?
**A.** 20%
